Data reported in patent publication US20250102493A1, “COMPOSITIONS AND METHODS FOR TREATMENT OF ANEUPLOID CANCERS” (Yale University, priority 2023, published 2025).

Experiments:
HAP1 UCK2-knockout cells = experiment: 72-hour drug assay in UCK2-knockout HAP1 cells; type: cell-based; conditions: haploid HAP1 cell line, UCK2 deleted with CRISPR
From the text: (§1) Following this, the cells were harvested and counted.
HAP1 cells harboring a CRISPR-induced frameshift mutation in the UCK2 gene were purchased from Horizon Discovery (cat. no. HZGHC007067c006). Loss of UCK2 expression was verified by western blotting.
First, as the mechanism of many cancer drugs is poorly understood (Lin, et al., Sci. Transl. Med. 11 (2019), Lin & Sheltzer, Nat. Rev. Genet. 21, 671-682 (2020)),whether the cytotoxicity of RX-3117 and 3-deazauridine requires UCK2 expression was assessed.

A2780 cells = experiment: 72-hour drug assay in A2780 1q-trisomic and 1q-disomic cells; type: cell-based, human; conditions: for sensitivity of cells harboring a trisomy of chromosome 1q compared to isogenic cells containing two copies of chromosome 1q: A2780, FIG. 6D; for sensitivity of 1q disomic cells compared to 1q trisomic cells: A2780 WT (1q trisomic) and engineered 1q disomic clones C1-C4
From the text: as §1

MCF10A cells [1] = experiment: 72-hour drug assay in MCF10A 1q-trisomic and 1q-disomic cells; type: cell-based, human; conditions: FIG. 6D
From the text: as §1

MCF10A cells [2] = experiment: Cellular competition between 1q-trisomic and 1q-disomic MCF10A cells; type: cell-based, human
Experimental: For the competition experiment, two independent experiments were performed: one when cells were mixed at an 80-20 ratio and one when cells were mixed at a 90:10 ratio. Similar results were obtained in both experiments.
Whether the greater sensitivity of 1q-trisomic cells to UCK2 substrates could be used to re-direct cellular evolution away from aneuploidy and towards a disomic state with lower malignant potential was assessed (FIG. 6E). Fluorescently-labeled 1q-trisomic and 1q-disomic MCF10A cells were mixed at a ratio of 20:80 and then co-cultured the two cell populations. After nine days of growth in drug-free medium, the trisomic cells had expanded to include 75% of the culture, but when the same cell populations were grown in the presence of 500 nM 3-deazauridine, the trisomic population decreased to include only 4% of the final culture (FIG. 6F).

NCI-60 cell line panel = conditions: NCI-60 panel (Luna et al.); cited from earlier work
A2058 cells = experiment: 72-hour drug assay in A2058 1q-trisomic and 1q-disomic cells; type: cell-based, human
From the text: as §1

AGS cells = experiment: 72-hour drug assay in AGS 1q-trisomic and 1q-disomic cells; type: cell-based, human
From the text: as §1

DLD1 colon cancer cells = experiment: Drug sensitivity of DLD1 trisomy-1 cells and parental DLD1 cells; type: cell-based; conditions: P<0.005; t-test
Experimental: The DLD1 trisomy 1 clone was generated as previously described in ref (Vasudevan, et al., Dev. Cell. 52, 413-428.e6 (2020)). In brief, DLD1 cells were transiently treated with 1 μM AZ3146 (Selleck Chemicals; cat. no. S2731) for 24 hours, and then the drug was washed out and the cells were allowed to recover for 24 hours. Following the recovery passage, single-cell sorting was performed to isolate individual aneuploid clones. SMASH-Seq was used to identify a clone harboring a trisomy of chromosome 1.
as §1

Structure (SMILES)	response of UCK2-knockout cells to the compound (HAP1 UCK2-knockout cells)	sensitivity of cells harboring a trisomy of chromosome 1q compared to isogenic cells containing two copies of chromosome 1q (A2780 cells)	sensitivity of 1q disomic cells compared to 1q trisomic cells (A2780 cells)	sensitivity of cells harboring a trisomy of chromosome 1q compared to isogenic cells containing two copies of chromosome 1q (MCF10A cells [1])	trisomic population in the final culture (MCF10A cells [2]; 500 nM 3-deazauridine, nine days, 1q-trisomic and 1q-disomic MCF10A mixed at 20:80, 75% in drug-free medium)	effect on outgrowth of the 1q-trisomic subpopulation (MCF10A cells [2]; trisomic and disomic MCF10A mixed at 20% to 80%, FIG. 6F)	correlation of UCK2 expression with sensitivity to the compound (NCI-60 cell line panel)	effect of ectopic overexpression of UCK2 cDNA on sensitivity to the compound (A2780 cells; 1q-disomic A2780 cells)	effect of deleting a single copy of UCK2 on sensitivity to the compound (A2780 cells; 1q-trisomic A2780 cells)	difference in sensitivity between 1q-trisomic and 1q-disomic cells (A2058 cells)	difference in sensitivity between 1q-trisomic and 1q-disomic cells (AGS cells)	sensitivity of DLD1 trisomy-1 cells compared to the parental DLD1 cells (DLD1 colon cancer cells)
O=C1C=CN([C@@H]2O[C@H](CO)[C@@H](O)[C@H]2O)C(=O)C1 [3-deazauridine]	highly resistant	more sensitive	less sensitive	more sensitive	4%	prevents the outgrowth of the 1q-trisomic subpopulation	higher UCK2 expression correlates with greater sensitivity	–	–	–	–	–
Nc1ccn([C@@H]2C(F)=C(CO)[C@@H](O)[C@H]2O)c(=O)n1 [RX-3117]	highly resistant	more sensitive	less sensitive	more sensitive	–	–	higher UCK2 expression correlates with greater sensitivity	increase sensitivity	decrease sensitivity	not evident	not evident	significantly more sensitive
